Results reported in patent publication US8946203B2, “Benzodioxane inhibitors of leukotriene production” (Boehringer Ingelheim International GmbH, priority 2012, dated 2015).
Like-named read-outs stand apart in the source and are kept apart here.

How the values were obtained:
human LTA4 hydrolase = biological target: T1, human LTA4 hydrolase (Homo sapiens, UniProt P09960); experiment: LTA4H Enzyme assay (cleavage of Arg-AMC, fluorescence); format: biochemical
T1 sequence (P09960 1-611): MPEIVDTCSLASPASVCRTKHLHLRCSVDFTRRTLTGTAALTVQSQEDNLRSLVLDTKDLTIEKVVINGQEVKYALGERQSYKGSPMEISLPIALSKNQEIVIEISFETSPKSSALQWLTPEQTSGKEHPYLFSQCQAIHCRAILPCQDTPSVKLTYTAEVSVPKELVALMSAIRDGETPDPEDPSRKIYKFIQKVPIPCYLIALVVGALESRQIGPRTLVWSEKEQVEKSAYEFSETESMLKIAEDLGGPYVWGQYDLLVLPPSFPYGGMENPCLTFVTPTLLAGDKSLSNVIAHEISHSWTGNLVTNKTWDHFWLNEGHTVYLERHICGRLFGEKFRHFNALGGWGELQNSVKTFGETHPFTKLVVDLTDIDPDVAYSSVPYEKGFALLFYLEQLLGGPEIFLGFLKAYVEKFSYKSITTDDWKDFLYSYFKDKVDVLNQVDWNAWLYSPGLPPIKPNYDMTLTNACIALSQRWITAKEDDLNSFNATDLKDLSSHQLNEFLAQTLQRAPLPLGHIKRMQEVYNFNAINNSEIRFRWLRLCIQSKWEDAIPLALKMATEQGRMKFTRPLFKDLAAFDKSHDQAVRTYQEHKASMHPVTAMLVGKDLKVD
Method in brief: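 Aminomethylcoumarin release measured fluorimetrically (380/460 nm) after 1 h at room temperature. Reaction: 1 nM final enzyme, 50 μM final Arg-AMC and compound in Tris-HCl pH 7.5 with 100 mM KCl and 0.5% BSA.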

[1] = tested on: synthesis of LTB4 in human whole blood; experiment: human whole blood (HWB) assay, LTB4 production inhibition after calcimycin stimulation; format: cell-based; details: heparinized human whole blood, calcimycin 20 μM, plasma LTB4 by HTRF
Procedure: The compounds of the invention are additionally tested in a human whole blood (HWB) assay to determine their ability to inhibit the synthesis of LTB4 in a cellular system. Compounds are combined with heparinized human whole blood and incubated for 15 minutes at 37° C. Calcimycin (20 μM final, prepared in phosphate-buffered saline, pH 7.4) is then added and the mixture is incubated for another 30 minutes at 37° C. The samples are centrifuged for 5 min at low speed (1500×g) and the plasma layer is removed. Plasma LTB4 concentrations are then measured using an antibody-based homogenous time-resolved fluorescence method (CisBio, Bedford, Mass.). In general, the preferred potency range (IC50) of compounds in the HWB assay is between 10 nM to 10 μM, the more preferred potency range is 10 nM to 1 μM, and the most preferred potency range is 10 nM to 100 nM.

[2] = LTA4H Enzyme 1 nM, Arg-AMC substrate 50 μM, room temperature 1 h, fluorescence, read-out: IC50 values of LTA4H Enzyme assay

Structure (SMILES) | IC50 (human LTA4 hydrolase; [2]) | IC50 [1] | IC50 (human LTA4 hydrolase)
O[C@H]1CCN(Cc2ccc(C3COc4ccccc4O3)cc2)C1 (mixture of isomers) [Example 9, (3S)-1-[4-(2,3-dihydro-1,4-benzodioxin-2-yl)benzyl]pyrrolidin-3-ol] | 1.49 nM | 285 nM | –
CC(=O)N1C[C@@H]2C[C@H]1CN2Cc1ccc([C@H]2COc3cccnc3O2)cc1 [Example 292, 1-{(1S,4S)-5-[(S)-4-(2,3-Dihydro-[1,4]dioxino[2,3-b]pyridin-3-yl)-benzyl]-2,5-diaza-bicyclo[2.2.1]hept-2-yl}-ethanone] | 0.16 nM | 24 nM | –
CNC(=O)C1CCN(Cc2ccc(C3COc4ccccc4O3)cc2)CC1 (racemic) [Example 25, 1-[4-(2,3-Dihydro-benzo[1,4]dioxin-2-yl)-benzyl]-piperidine-4-carboxylic acid methylamide] | 0.76 nM | 294 nM | –
O=C(O)CCC1CCN(Cc2ccc([C@H]3COc4ccccc4O3)cc2)CC1 [Example 134, 3-(1-{4-[(2S)-2,3-dihydro-1,4-benzodioxin-2-yl]benzyl}piperidin-4-yl)propionic acid] | 0.47 nM | 95 nM | –
COC1CCCN(Cc2ccc([C@H]3COc4cccnc4O3)cc2)C1 (stereo partly drawn) [Example 158, (3S)-3-{4-[(3-methoxypiperidin-1-yl)methyl]phenyl}-2,3-dihydro[1,4]dioxino[2,3-b]pyridine] | 0.13 nM | 28 nM | –
CCOC(=O)c1nnc2n1CCN(Cc1ccc([C@H]3COc4cccnc4O3)cc1)C2 [Example 240, 7-[(S)-4-(2,3-dihydro-[1,4]dioxino[2,3-b]pyridin-3-yl)-benzyl]-5,6,7,8-tetrahydro-[1,2,4]triazolo[4,3-a]pyrazine-3-carboxylic acid ethyl ester] | 0.56 nM | 140 nM | –
NC(=O)NC1CCN(Cc2ccc([C@H]3COc4ccccc4O3)cc2)CC1 [Example 175, 1-(1-{4-[(2S)-2,3-dihydro-1,4-benzodioxin-2-yl]benzyl}piperidin-4-yl)urea] | 0.22 nM | 73 nM | –
CC(=O)NCC1CCN(Cc2ccc([C@H]3COc4cccnc4O3)cc2)CC1 [Example 279, N-{1-[(S)-4-(2,3-Dihydro-[1,4]dioxino[2,3-b]pyridin-3-yl)-benzyl]-piperidin-4-ylmethyl}-acetamide] | 0.34 nM | 93 nM | –
O=C(O)c1ccc(C2CN(Cc3ccc([C@H]4COc5ccccc5O4)cc3)C2)cc1 [Example 254, 4-{1-[(S)-4-(2,3-Dihydro-benzo[1,4]dioxin-2-yl)-benzyl]-azetidin-3-yl}-benzoic acid] | 0.24 nM | 84 nM | –
O=C(C1CCN(Cc2ccc(C3COc4ccccc4O3)cc2)CC1)N1CCOCC1 (racemic) [Example 37, {1-[4-(2,3-dihydro-1,4-benzodioxin-2-yl)benzyl]piperidin-4-yl}(morpholin-4-yl)methanone] | 1.05 nM | 324 nM | –
CNC(=O)c1nnc2n1CCN(Cc1ccc([C@H]3COc4cccnc4O3)cc1)CC2 [Example 246, 6-[(S)-4-(2,3-Dihydro-[1,4]dioxino[2,3-b]pyridin-3-yl)-benzyl]-5,6,7,8-tetrahydro-4H-1,2,3a,6-tetraaza-azulene-3-carboxylic acid methylamide] | 0.29 nM | 91 nM | –
C[C@@H](CO)NC(=O)[C@H]1[C@@H]2CN(Cc3ccc([C@H]4COc5cccnc5O4)cc3)C[C@@H]21 [Example 248, [(1α,5α,6α)-3-[(S)-4-(2,3-Dihydro-[1,4]dioxino[2,3-b]pyridin-3-yl)-benzyl]-3-aza-bicyclo[3.1.0]hexane]-6-carboxylic acid ((S)-2-hydroxy-1-methyl-ethyl)-amide] | 0.17 nM | 58 nM | –
O=C1OC[C@@H]2CN(Cc3ccc([C@H]4COc5cccnc5O4)cc3)CCN12 [Example 296, (S)-7-[(S)-4-(2,3-Dihydro-[1,4]dioxino[2,3-b]pyridin-3-yl)-benzyl]-hexahydro-oxazolo[3,4-a]pyrazin-3-one] | 0.32 nM | 90 nM | –
CCN(CC)Cc1ccc([C@H]2COc3cccnc3O2)cc1 [Example 141, N-{4-[(3S)-2,3-dihydro[1,4]dioxino[2,3-b]pyridin-3-yl]benzyl}-N-ethylethanamine] | 0.26 nM | 33 nM | –
COCC(=O)N1CCCN(Cc2ccc([C@H]3COc4cccnc4O3)cc2)CC1 [Example 257, 1-{4-[(S)-4-(2,3-Dihydro-[1,4]dioxino[2,3-b]pyridin-3-yl)-benzyl]-[1,4]diazepan-1-yl}-2-methoxy-ethanone] | 0.48 nM | 270 nM | –
O=C(O)C1(c2ccccc2)CCN(Cc2ccc([C@H]3COc4cccnc4O3)cc2)CC1 [Example 294, 1-[(S)-4-(2,3-Dihydro-[1,4]dioxino[2,3-b]pyridin-3-yl)-benzyl]-4-phenyl-piperidine-4-carboxylic acid] | – | 1300 nM | 5.8 nM
NC(=O)N1C[C@@H]2C[C@H]1CN2Cc1ccc([C@H]2COc3cccnc3O2)cc1 [Example 268, (1S,4S)-5-[(S)-4-(2,3-Dihydro-[1,4]dioxino[2,3-b]pyridin-3-yl)-benzyl]-2,5-diaza-bicyclo[2.2.1]heptane-2-carboxylic acid amide] | 0.11 nM | 66 nM | –
CC(=O)N[C@H]1C[C@H]2CC[C@@H](C1)N2Cc1ccc([C@H]2COc3cccnc3O2)cc1 [Example 278, N-{(endo)-8-[(S)-4-(2,3-Dihydro-[1,4]dioxino[2,3-b]pyridin-3-yl)-benzyl]-8-aza-bicyclo[3.2.1]oct-3-yl}-acetamide] | 0.26 nM | 73 nM | –
CNC(=O)c1nnc2n1CCN(Cc1ccc([C@H]3COc4cccnc4O3)cc1)C2 [Example 242, 7-[(S)-4-(2,3-dihydro-[1,4]dioxino[2,3-b]pyridin-3-yl)-benzyl]-5,6,7,8-tetrahydro-[1,2,4]triazolo[4,3-a]pyrazine-3-carboxylic acid methylamide] | 0.6 nM | 170 nM | –
O=C(O)[C@H]1[C@@H]2CN(Cc3ccc([C@H]4COc5ccccc5O4)cc3)C[C@@H]21 [Example 267, [(1α,5α,6α)-3-[(S)-4-(2,3-Dihydro-benzo[1,4]dioxin-2-yl)-benzyl]-3-aza-bicyclo[3.1.0]hexane]-6-carboxylic acid] | 0.3 nM | 73 nM | –
O=C(NC[C@@H]1CCCO1)C1CCN(Cc2ccc([C@H]3COc4cccnc4O3)cc2)CC1 [Example 287, 1-[(S)-4-(2,3-Dihydro-[1,4]dioxino[2,3-b]pyridin-3-yl)-benzyl]-piperidine-4-carboxylic acid [(S)-1-(tetrahydro-furan-2-yl)methyl]-amide] | 0.19 nM | 55 nM | –
CN(Cc1ccc([C@H]2COc3cccnc3O2)cc1)C1CCS(=O)(=O)C1 (stereo partly drawn) [Example 280, [(S)-4-(2,3-Dihydro-[1,4]dioxino[2,3-b]pyridin-3-yl)-benzyl]-(1,1-dioxo-tetrahydro-1lambda-6-thiophen-3-yl)-methyl-amine] | 2.4 nM | 230 nM | –
C[C@H](O)CNC(=O)[C@H]1[C@@H]2CN(Cc3ccc([C@H]4COc5cccnc5O4)cc3)C[C@@H]21 [Example 247, [(1α,5α,6α)-3-[(S)-4-(2,3-dihydro-[1,4]dioxino[2,3-b]pyridin-3-yl)-benzyl]-3-aza-bicyclo[3.1.0]hexane]-6-carboxylic acid ((S)-2-hydroxy-propyl)-amide] | 0.17 nM | 68 nM | –
CC(C)(O)CNC(=O)[C@H]1[C@@H]2CN(Cc3ccc([C@H]4COc5cccnc5O4)cc3)C[C@@H]21 [Example 251, [(1α,5α,6α)-3-[(S)-4-(2,3-Dihydro-[1,4]dioxino[2,3-b]pyridin-3-yl)-benzyl]-3-aza-bicyclo[3.1.0]hexane-6-carboxylic acid (2-hydroxy-2-methyl-propyl)]-amide] | 0.16 nM | 63 nM | –
c1cnc2c(c1)OC[C@H](c1ccc(CN3CCCC3)cc1)O2 [Example 126, (3S)-3-[4-(pyrrolidin-1-ylmethyl)phenyl]-2,3-dihydro[1,4]dioxino[2,3-b]pyridine] | 0.18 nM | 32 nM | –
NC(=O)NC1CCN(Cc2ccc([C@H]3COc4cccnc4O3)cc2)CC1 [Example 187, 1-(1-{4-[(3S)-2,3-dihydro[1,4]dioxino[2,3-b]pyridin-3-yl]benzyl}piperidin-4-yl)urea] | 0.07 nM | 177 nM | –
